The values below are quoted from earlier work in patent US7259160B2, “Hexahydrodiazepinones as dipeptidyl peptidase-IV inhibitors for the treatment or prevention of diabetes” (Merck & Co., Inc., priority 2003, dated 2007).

One data set concerns hematopoiesis. The settings on record: mouse, cyclophosphamide-induced neutropenia.
The next data set concerns the target T1, DPP-IV (Homo sapiens, UniProt P27487).
T1 construct: GRF is rapidly degraded in plasma to GRF[344]

T1 sequence (P27487 whole entry, species assumed): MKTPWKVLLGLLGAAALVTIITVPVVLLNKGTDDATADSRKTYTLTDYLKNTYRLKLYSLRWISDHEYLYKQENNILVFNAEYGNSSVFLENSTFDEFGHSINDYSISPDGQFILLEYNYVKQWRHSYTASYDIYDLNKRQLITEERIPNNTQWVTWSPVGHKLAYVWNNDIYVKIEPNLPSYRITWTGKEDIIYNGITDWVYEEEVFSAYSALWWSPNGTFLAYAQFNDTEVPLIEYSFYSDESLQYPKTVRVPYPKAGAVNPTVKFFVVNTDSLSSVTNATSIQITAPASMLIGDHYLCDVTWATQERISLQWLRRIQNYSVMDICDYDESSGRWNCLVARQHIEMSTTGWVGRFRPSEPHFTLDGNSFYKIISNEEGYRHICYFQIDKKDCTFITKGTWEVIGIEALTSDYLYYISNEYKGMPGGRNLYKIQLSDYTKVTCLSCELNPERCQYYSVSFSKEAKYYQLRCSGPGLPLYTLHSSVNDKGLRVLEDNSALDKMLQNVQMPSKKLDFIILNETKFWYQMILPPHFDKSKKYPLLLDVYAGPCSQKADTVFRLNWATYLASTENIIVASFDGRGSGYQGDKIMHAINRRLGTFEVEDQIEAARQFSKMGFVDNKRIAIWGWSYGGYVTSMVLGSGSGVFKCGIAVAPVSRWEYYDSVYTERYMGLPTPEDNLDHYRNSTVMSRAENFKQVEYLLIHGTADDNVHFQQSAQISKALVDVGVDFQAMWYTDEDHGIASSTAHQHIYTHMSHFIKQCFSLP

For `CC(C)[C@H](N)C(=O)N1CCC[C@H]1B(O)O` [Val-Boro-Pro], the hematopoiesis entry in the data set with hematopoiesis is recorded as “stimulated hematopoiesis”.
In the case of diprotin A, the “degradation of GRF in plasma” value at DPP-IV is reported as “prevented”.
